# Results from patent US7629375B2, “Cytoprotective compounds, pharmaceutical and cosmetic formulations, and methods” (Johnson & Johnson Consumer Companies, Inc., priority 2001, dated 2009).
# System: neonatal cardiomyocytes
# Assay: Myocyte calcium-contractility assay
# Format: cell-based, rat
# Conditions: anaerobic chamber 16 hours in DMEM 1 mM glucose, reoxygenation two hours
# Protocol: A. Isolation and Culture of Primary Neonate Myocytes.
# The following materials are employed: • 10× Heart Dissection Solution (HDS) contains the following components (g/l) in tissue grade water: NaCl, 68; HEPES, 47.6; NaH2PO4, 2; Glucose, 10; KCl, 4; MgSO4, 1, pH adjusted to 7.4. Prior to filter sterilization of diluted (1×HDS) solution, 10 mg phenol red is added to each 500 milliliters of medium. • Transferrin and Bovine Insulin (available from Life Technologies) are resuspended at a concentration of 4 mg/ml in tissue culture grade water. • DMEM-F12—DMEM/F12, powder, 1:1 containing glutamine and pyridoxine hydrochloride (available from Life Technologies). To one liter equivalent of the powder is added 2.43 g of sodium bicarbonate and 10 ml of 100× Penicillin/Streptomycin in 950 ml of tissue culture grade water with stirring. The pH is adjusted to 7.2 with 1M HCl and volume adjusted to 1 liter. The solution is filter sterilized, followed by the addition of 2.5 ml of 4 mg/ml Transferrin, 250 μl 4 mg/ml Insulin and 30.7 mg of bromodeoxyuridine. • DMEM-F12-5% FBS is also prepared for pre-coating the tissue culture plates and initial suspension of the cardiomyocyte pellet. • Collagenase solution-57.1 mg of collagenase is resuspended in 140 ml 1×HDS.
# Tissue culture ware is pre-coated with DMEM-F12-5% FBS by incubating […] per well of a 96-well plate and 0.5 ml per 24-well plate at 37° C.
# Two-day old rat pups are removed from their mothers and placed in a sterile container. Pups are dipped quickly into 70% alcohol, then decapitated and the body placed in an empty sterile tissue culture dish. An incision is made starting at the neck and progressing towards the belly, cutting through the sternum. The heart is removed and placed in a tissue culture dishes containing 1×HDS. The atria are trimmed, and the remaining ventricles are placed into a separate tissue culture dish containing 1×HDS, where they are sectioned into 3-4 pieces each. Ventricles are then transferred to a sterile 250 ml glass flask and the 1×HDS is removed. Twenty milliliters of pre-warmed collagenase solution is added to the ventricles, followed by incubation at 37° C. with shaking. After 20 minutes, the collagenase solution is removed and replaced with 20 ml fresh pre-warmed collagenase. Incubation is continued for an additional 20 minutes. At the end of the incubation, any tissue chunks are allowed to settle prior to removing the collagenase (containing the isolated cardiomyocytes) from the disrupted tissue pieces. The isolated myocytes are added to a 50 ml Falcon tube containing 2 ml Fetal Bovine Serum (FBS). The remaining tissue pieces are subjected to a second digestion by adding 20 ml fresh pre-warmed collagenase and incubating as above for 20 minutes. This second digest is then centrifuged at 1000 rpm for 5 minutes (tabletop centrifuge). The resulting supernatant is discarded, and the cell pellet is suspended with 4 ml FBS. The resulting cell suspension is placed in the incubator at 37° C. This step is repeated several additional times to harvest additional material.
# Percoll gradients are prepared by adding 2.5 ml of 10×HDS to 22.5 ml of Percoll (Life Technologies) with mixing (Percoll Stock). Top Gradient solution (11 ml Percoll Stock and 14 ml 1×HDS) and Bottom Gradient solution (13 ml Percoll Stock and 7 ml 1×HDS) are prepared. Four milliliters of the Top Gradient solution is transferred into 6×15 ml sterile Falcon tubes. Three milliliters of the Bottom Gradient solution is placed in each tube by inserting a serological pipette to the bottom of the tube and slowly adding the liquid.
# All the digests (6) are pooled in one 50 ml Falcon tube and centrifuged on a tabletop centrifuge at 1000 rpm for 10 minutes. The supernatant is discarded, and the cell pellet is resuspended in 12 ml of 1×HDS. Two milliliters of the cell suspension is added to the top of each gradient. […]
row,Structure (SMILES),calcium transients (Fluo-4) in amounts indicative of ability guard against ischemic damage and maintain contractile function
1,"O=[N+]([O-])C=Cc1ccc(O)c(O)c1 [4-(2-nitro-vinyl)-benzene-1,2-diol]",presence of calcium transients
2,"COCOc1ccc(C=C2C(=O)Oc3ccccc32)cc1OCOC [3-(3,4-bis-methoxymethoxy-benzylidene)-3H-benzofuran-2-one]",presence of calcium transients
3,"COCOc1cc(C=Cc2ccc([N+](=O)[O-])cc2)cc(OCOC)c1CC=C(C)C [1,3-bis-methoxymethoxy-2-(3-methyl-but-2-enyl)-5-[2-(4-nitro-phenyl)-vinyl]-benzene]",presence of calcium transients
4,"CC(C)(C)c1cc(C=C2C(=O)Oc3ccc(O)cc32)cc(C(C)(C)C)c1O [3-(3,5-di-tert-butyl-4-hydroxy-benzylidene)-5-hydroxy-3H-benzofuran-2-one]",presence of calcium transients
5,"COCOc1cc(C=Cc2ccc(C(=O)OC)cc2)cc(OCOC)c1CC=C(C)CCC=C(C)C [4-{2-[4-(3,7-dimethyl-octa-2,6-dienyl)-3,5-bis-methoxymethoxy-phenyl]-vinyl}-benzoic acid methyl ester]",presence of calcium transients
6,"COC(=O)c1ccc(C=Cc2cc(CC=C(C)CCC=C(C)C)c(O)c(OC)c2)cc1 [4-{2-[3-(3,7-dimethyl-octa-2,6-dienyl)-4-hydroxy-5-methoxy-phenyl]-vinyl}-benzoic acid methyl ester]",presence of calcium transients
7,COC(=O)c1ccc(C=Cc2cc(I)c(O)c(OC)c2)cc1 [4-[2-(4-hydroxy-3-iodo-5-methoxy-phenyl)-vinyl]-benzoic acid methyl ester],presence of calcium transients
8,"COCOc1ccc(C=Cc2ccc(N(C)C)cc2)cc1OCOC [{4-[2-(3,4-bis-methoxymethoxy-phenyl)-vinyl]-phenyl}-dimethyl-amine]",presence of calcium transients
9,"COCOc1ccc(C=CC=Cc2ccc([N+](=O)[O-])cc2)cc1OC [2-methoxy-1-methoxymethoxy-4-[4-(4-nitro-phenyl)-buta-1,3-dienyl]-benzene]",presence of calcium transients
10,"COCOc1cc(C=Cc2cc(OC)c(OCOC)c(OC)c2)cc(OCOC)c1CC=C(C)C [5-[2-(3,5-dimethoxy-4-methoxymethoxy-phenyl)-vinyl]-2-(3-methyl-but-2-enyl)-1,3-(bis-methoxymethoxy)-benzene]",presence of calcium transients
11,"O=C1NC(=O)C(=Cc2ccc(O)c(O)c2)S1 [5-(3,4-dihydroxy-benzylidene)-thiazolidine-2,4-dione]",presence of calcium transients
12,COC(=O)c1ccc(C=Cc2ccc3[nH]cnc3c2)cc1 [4-[2-(1H-benzoimidazol-5-yl)-vinyl]-benzoic acid methyl ester],presence of calcium transients
13,COCOc1c(Br)cc(C=Cc2ccc([N+](=O)[O-])cc2)cc1OC [1-bromo-3-methoxy-2-methoxymethoxy-5-[2-(4-nitro-phenyl)-vinyl]-benzene],presence of calcium transients
14,"COCOc1cc(C=Cc2ccc(C#N)cc2)cc(OCOC)c1CC=C(C)CCC=C(C)C [4-{2-[4-(3,7-dimethyl-octa-2,6-dienyl)-3,5-bis-methoxymethoxy-phenyl]-vinyl}-benzonitrile]",presence of calcium transients
15,"O=C(O)C(=O)C[n+]1ccc(C=Cc2ccc(O)c(O)c2)cc1.[Br-] [1-(2-Carboxy-2-oxo-ethyl)-4-[2-(3,4-dihydroxy-phenyl)-vinyl]-pyridinium; bromide]",presence of calcium transients
16,"CC1=NN(c2ccccc2)C(=O)C1=Cc1ccc(O)c(O)c1 [4-(3,4-dihydroxy-benzylidene)-5-methyl-2-phenyl-2,4-dihydro-pyrazol-3-one]",presence of calcium transients
17,"Cc1c(C)c2c(c(COc3ccc(C=C4SC(=O)NC4=O)cc3)c1O)CCC(C)(CCCC(C)CCCC(C)CCCC(C)C)O2 (centres unmarked) [5-{4-[6-hydroxy-2,7,8-trimethyl-2-(4,8,12-trimethyl-tridecyl)-chroman-5-ylmethoxy]-benzylidene}-thiazolidine-2,4-dione]",presence of calcium transients
18,"COCOc1c(C/C=C(\C)CCC=C(C)C)cc(C=Cc2ccc([N+](=O)[O-])cc2)cc1OC [1-(3,7-dimethyl-octa-2,6-dienyl)-3-methoxy-2-methoxymethoxy-5-[2-(4-nitro-phenyl)-vinyl]-benzene]",presence of calcium transients
19,"O=C(c1ccc(C=Cc2ccc(O)c(O)c2)cc1)N(CCO)CCO [4-[2-(3,4-dihydroxy-phenyl)-vinyl]-N,N-bis-(2-hydroxy-ethyl)-benzamide]",presence of calcium transients
20,"O=C(O)C[n+]1ccc(C=Cc2ccc(O)c(O)c2)cc1.[Br-] [1-carboxymethyl-4-[2-(3,4-dihydroxy-phenyl)-vinyl]-pyridinium; bromide]",presence of calcium transients
21,"COCOc1cc(C=Cc2ccc([N+](=O)[O-])cc2)cc(OCOC)c1CC=C(C)CCC=C(C)C [2-(3,7-dimethyl-octa-2,6-dienyl)-1,3-bis-methoxymethoxy-5-[2-(4-nitro-phenyl)-vinyl]-benzene]",presence of calcium transients
22,"COCOc1cc(C=Cc2ccc(C#N)cc2)cc(OCOC)c1CC=C(C)C [4-{2-[3,5-bis-methoxymethoxy-4-(3-methyl-but-2-enyl)-phenyl]-vinyl}-benzonitrile]",presence of calcium transients
23,COCOc1c(CC=C(C)C)cc(C=Cc2ccc([N+](=O)[O-])cc2)cc1OC [1-methoxy-2-methoxymethoxy-3-(3-methyl-but-2-enyl)-5-[2-(4-nitro-phenyl)-vinyl]-benzene],presence of calcium transients
24,"CNc1ccc(C=Cc2ccc(OCOC)c(OCOC)c2)cc1 [{4-[2-(3,4-bis-methoxymethoxy-phenyl)-vinyl]-phenyl}-methyl-amine]",presence of calcium transients
25,COc1cc(C=Cc2ccc(C#N)cc2)ccc1O [4-[2-(4-hydroxy-3-methoxy-phenyl)-vinyl]-benzonitrile],presence of calcium transients
26,COCOC(=O)c1cc(C=Cc2ccc(C(=O)OC)cc2)ccc1OCOC [5-[2-(4-methoxycarbonyl-phenyl)-vinyl]-2-methoxymethoxy-benzoic acid methoxymethyl ester],presence of calcium transients
